# Biological target: T1, human H3 receptors (Homo sapiens, UniProt Q9Y5N1)
# T1 construct: host or cells: CHO-K1
# Assay: cAMP quantification assay for human H3 receptor testing
# Assay type: cell-based
# Details: CHO-K1 cells expressing human H3 receptors; inhibition of agonist-induced decrease of cAMP; 100 nM histamine, 10 μM forskolin; read-out: Potency range (IC50 values)
# Procedure: CHO—K1 cell line expressing human H3 receptors were purchased from Euroscreen (Gosselies, Belgium, Cat. no.: ES-392-C)
# Human H3 receptor-expressing cell-lines were grown in Ham's F12 [Sigma, Cat. no. N6658], supplemented with 10% FBS [Sigma, Cat. no. F9665], 400 μg/ml G418 [Sigma, Cat. no. N1876] and 250 μg/ml Zeocin [Invitrogen, Cat. no. 46-0509]) according to the protocol provided by Euroscreen.
# The assay measures the ability of test compounds to inhibit Histamine receptor agonist-induced decrease of intracellular free cAMP (receptor is Gi coupled).
# Specifically, a cAMP quantification assay system from DiscoveRx (cAMP XS+; Cat. no. 90-0075) was used.
# For the cAMP assay, confluent cells were detached from the culture vessels with 1× trypsin-EDTA solution (Sigma), and seeded into 384-well Costar plates (white, clear bottom, Cat. no. 3707) at a density of 10,000 cells per well. Cells were seeded in a volume of 50 μl in medium without antibiotics and incubated overnight in a humidified atmosphere with 5% CO2 at 37° C. The cAMP assay was performed according to the protocol provided by DiscoveRx.
# The cell culture medium was removed and the cells washed once with PBS (50 μl per well). The plates were emptied by inversion and 7.5 μl/well of compound in PBS (containing 1 mM IBMX and 0.03% BSA) were added and incubated for 30 min at 37° C.
# Subsequent 7.5 μl/well specific agonist solution was added and the plates for another 30 min incubated at 37° C.
# hH3:100 nM histamine, 10 μM forskolin in PBS (containing 1 mM IBMX and 0.03% BSA)
# After the incubation with the agonist, 5 μl/well cAMP XS antibody solution was added followed by 20 μl/well Gal/EII/Lysis (1:5:19)+ED (1:1). The plates were incubated for one hour at room temperature and afterwards 20 μl/well EA reagent was added. The luminescence was developed for approximately three hours at room temperature and the plates were read out using a ‘BMG Novostar’ plate reader.
# Test compounds were assayed at 8 concentrations in triplicate. Serial 10-fold dilutions in 100% DMSO were made at a 100-times higher concentration than the final concentration and then diluted with a 2 step protocol in assay buffer to reach the required assay concentrations and 1% DMSO. […]
# T1 sequence (Q9Y5N1 whole entry): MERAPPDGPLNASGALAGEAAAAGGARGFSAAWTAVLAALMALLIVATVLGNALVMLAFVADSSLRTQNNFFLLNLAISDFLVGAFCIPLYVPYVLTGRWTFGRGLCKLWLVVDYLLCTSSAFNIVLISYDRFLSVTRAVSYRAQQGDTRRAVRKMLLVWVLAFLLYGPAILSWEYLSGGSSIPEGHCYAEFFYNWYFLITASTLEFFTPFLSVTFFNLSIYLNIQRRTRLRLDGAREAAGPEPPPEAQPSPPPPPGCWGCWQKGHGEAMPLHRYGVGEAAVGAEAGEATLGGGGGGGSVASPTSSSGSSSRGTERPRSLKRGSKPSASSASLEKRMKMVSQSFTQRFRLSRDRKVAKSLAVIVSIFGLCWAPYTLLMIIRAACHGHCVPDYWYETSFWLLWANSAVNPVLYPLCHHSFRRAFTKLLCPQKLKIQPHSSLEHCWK
row,SMILES,IC50 [nM]
1,"O=C(C1CC1)N1CCc2nc(OC3CN(C(=O)N4CCCN(C5CCC5)CC4)C3)ccc2C1 [Example 83, 2-({1-[(4-cyclobutyl-1,4-diazepan-1-yl)carbonyl]azetidin-3-yl}oxy)-6-(cyclopropylcarbonyl)-5,6,7,8-tetrahydro-1,6-naphthyridine]",< 100
2,"O=C(CC1CC1)N1CCc2nc(OC3CN(C(=O)N4CCCN(C5CCC5)CC4)C3)ccc2C1 [Example 84, 2-({1-[(4-cyclobutyl-1,4-diazepan-1-yl)carbonyl]azetidin-3-yl}oxy)-6-(cyclopropylacetyl)-5,6,7,8-tetrahydro-1,6-naphthyridine]",< 100
3,"CNC(=O)c1cnccc1OC1CN(C(=O)N2CCCN(C3CCC3)CC2)C1 [Example 85, 4-({1-[(4-cyclobutyl-1,4-diazepan-1-yl)carbonyl]azetidin-3-yl}oxy)-N-methylpyridine-3-carboxamide]",< 100
4,"O=C(N1CCCN(C2CCC2)CC1)N1CC(Oc2ccc(OC(F)(F)F)cc2)C1 [Example 88, 1-cyclobutyl-4-({3-[4-(trifluoromethoxy)phenoxy]azetidin-1-yl}carbonyl)-1,4-diazepane]",< 100
5,"COc1ccccc1OC1CN(C(=O)N2CCCN(C3CCC3)CC2)C1 [Example 92, 1-cyclobutyl-4-{[3-(2-methoxyphenoxy)azetidin-1-yl]carbonyl}-1,4-diazepane]",< 100
6,"O=C(N1CCCN(C2CCC2)CC1)N1CC(OCc2ccc(F)cc2)C1 [Example 95, 1-cyclobutyl-4-({3-[(4-fluorobenzyl)oxy]azetidin-1-yl}carbonyl)-1,4-diazepane]",< 100
7,"COC1CN(C(=O)N2CCCN(C3CCC3)CC2)C1 [Example 96, 1-cyclobutyl-4-[(3-methoxyazetidin-1-yl)carbonyl]-1,4-diazepane]",< 100
8,"O=C(N1CCCN(C2CCC2)CC1)N1CC(OCc2ccc(Cl)cc2)C1 [Example 97, 1-({3-[(4-chlorobenzyl)oxy]azetidin-1-yl}carbonyl)-4-cyclobutyl-1,4-diazepane]",< 100
9,"N#Cc1ccc(COC2CN(C(=O)N3CCCN(C4CCC4)CC3)C2)cc1 [Example 98, 4-[({1-[(4-cyclobutyl-1,4-diazepan-1-yl)carbonyl]azetidin-3-yl}oxy)methyl]benzonitrile]",< 100
10,"C#CCOC1CN(C(=O)N2CCCN(C3CCC3)CC2)C1 [Example 99, 1-cyclobutyl-4-{[3-(prop-2-yn-1-yloxy)azetidin-1-yl]carbonyl}-1,4-diazepane]",< 100
11,"O=C1CC(C(=O)N2CCCN(C3CCC3)CC2)C1 [Example 100, 3-[(4-cyclobutyl-1,4-diazepan-1-yl)carbonyl]cyclobutanone]",< 100
12,"O=C([C@H]1C[C@@H](O)C1)N1CCCN(C2CCC2)CC1 [Example 101, cis-3-[(4-cyclobutyl-1,4-diazepan-1-yl)carbonyl]cyclobutanol]",100 to 500
13,"CNC(=O)c1ccc(O[C@H]2C[C@@H](C(=O)N3CCCN(C4CCC4)CC3)C2)nc1 [Example 102, 6-({cis-3-[(4-cyclobutyl-1,4-diazepan-1-yl)carbonyl]cyclobutyl}oxy)-N-methylpyridine-3-carboxamide]",< 100
14,"N#Cc1ccc(O[C@H]2C[C@@H](C(=O)N3CCCN(C4CCC4)CC3)C2)cc1 [Example 103, 4-({cis-3-[(4-cyclobutyl-1,4-diazepan-1-yl)carbonyl]cyclobutyl}oxy)benzonitrile]",< 100
15,"O=C([C@H]1C[C@@H](Oc2ccc(C(F)(F)F)cn2)C1)N1CCCN(C2CCC2)CC1 [Example 104, 1-cyclobutyl-4-[(cis-3-{[5-(trifluoromethyl)pyridin-2-yl]oxy}cyclobutyl)carbonyl]-1,4-diazepane]",< 100
16,"O=C([C@H]1C[C@H](O)C1)N1CCCN(C2CCC2)CC1 [Example 105, trans-3-[(4-cyclobutyl-1,4-diazepan-1-yl)carbonyl]cyclobutanol]",< 100

# Now from value to compound:
row,IC50 [nM],SMILES
1,< 100,"O=C(N1CCCN(C2CCC2)CC1)N1CC(Oc2ccn3ccnc3c2)C1 [Example 71, 7-({1-[(4-cyclobutyl-1,4-diazepan-1-yl)carbonyl]azetidin-3-yl}oxy)imidazo[1,2-a]pyridine]"
2,< 100,"NC(=O)c1cc(OC2CN(C(=O)N3CCCN(C4CCC4)CC3)C2)ccn1 [Example 72, 4-({1-[(4-cyclobutyl-1,4-diazepan-1-yl)carbonyl]azetidin-3-yl}oxy)pyridine-2-carboxamide]"
3,< 100,"CNC(=O)c1cccc(OC2CN(C(=O)N3CCCN(C4CCC4)CC3)C2)c1 [Example 75, 3-({1-[(4-cyclobutyl-1,4-diazepan-1-yl)carbonyl]azetidin-3-yl}oxy)-N-methylbenzamide]"
4,< 100,O=C(N1CCCN(C2CCC2)CC1)N1CC(Oc2ncccc2Cl)C1 [Example 76]
5,< 100,"O=C(N1CCCN(C2CCC2)CC1)N1CC(Oc2ccc(Cl)cn2)C1 [Example 77, 1-({3-[(5-chloropyridin-2-yl)oxy]azetidin-1-yl}carbonyl)-4-cyclobutyl-1,4-diazepane]"
6,< 100,"O=C(N1CCCN(C2CCC2)CC1)N1CC(Oc2cncc(Cl)c2)C1 [Example 80, 1-({3-[(5-chloropyridin-3-yl)oxy]azetidin-1-yl}carbonyl)-4-cyclobutyl-1,4-diazepane]"
7,< 100,"O=C(N1CCCN(C2CCC2)CC1)N1CC(Oc2ccncc2)C1 [Example 81, 1-cyclobutyl-4-{[3-(pyridin-4-yloxy)azetidin-1-yl]carbonyl}-1,4-diazepane]"
8,< 100,"COc1cncc(OC2CN(C(=O)N3CCCN(C4CCC4)CC3)C2)c1 [Example 82, 1-cyclobutyl-4-({3-[(5-methoxypyridin-3-yl)oxy]azetidin-1-yl}carbonyl)-1,4-diazepane]"
9,< 100,"COc1ccc(OC2CN(C(=O)N3CCCN(C4CCC4)CC3)C2)cc1 [Example 86, 1-cyclobutyl-4-{[3-(4-methoxyphenoxy)azetidin-1-yl]carbonyl}-1,4-diazepane]"
10,< 100,"O=C(N1CCCN(C2CCC2)CC1)N1CC(Oc2ccc(-n3cccn3)cc2)C1 [Example 87, 1-cyclobutyl-4-({3-[4-(1H-pyrazol-1-yl)phenoxy]azetidin-1-yl}carbonyl)-1,4-diazepane]"
11,< 100,"O=C(N1CCCN(C2CCC2)CC1)N1CC(Oc2ccc(OC(F)F)cc2)C1 [Example 89, 1-cyclobutyl-4-({3-[4-(difluoromethoxy)phenoxy]azetidin-1-yl}carbonyl)-1,4-diazepane]"
12,< 100,"O=C(N1CCCN(C2CCC2)CC1)N1CC(Oc2ccc(Cl)cc2F)C1 [Example 90, 1-{[3-(4-chloro-2-fluorophenoxy)azetidin-1-yl]carbonyl}-4-cyclobutyl-1,4-diazepane]"
13,< 100,"COc1cccc(OC2CN(C(=O)N3CCCN(C4CCC4)CC3)C2)c1 [Example 91, 1-cyclobutyl-4-{[3-(3-methoxyphenoxy)azetidin-1-yl]carbonyl}-1,4-diazepane]"
14,< 100,"Cc1ccc2cc(OC3CN(C(=O)N4CCCN(C5CCC5)CC4)C3)ccc2n1 [Example 93, 6-({1-[(4-cyclobutyl-1,4-diazepan-1-yl)carbonyl]azetidin-3-yl}oxy)-2-methylquinoline]"
15,< 100,"O=C(N1CCCN(C2CCC2)CC1)N1CC(Oc2ccc(C(F)(F)F)nc2)C1 [Example 94, 1-cyclobutyl-4-[(3-{[6-(trifluoromethyl)pyridin-3-yl]oxy}azetidin-1-yl)carbonyl]-1,4-diazepane]"

# Source: patent publication US8691804B2 (Evotec AG, priority 2008, dated 2014)
